Patent US9988380B2, “Quorum sensing inhibitors” (priority 2013, dated 2018)

What was measured:
[1] = test system: P. aeruginosa PAO1 strain; experiment: iTRAQ-based quantitative proteomic analysis; format: cell-based; conditions: 25 μM G1
Description: iTRAQ-Based Proteomics Analyses for G1. Isobaric tag for relative and absolute quantitation (iTRAQ)-based proteomic analysis was used to study the changes in protein expression of the P. aeruginosa PAO1 strain in response to the addition of 25 μM of G1. Proteomics experiments were performed at the Proteomic Core Facility of the Biological Research Center, School of Biological Sciences, Nanyang Technological University, Singapore. A full description of the proteomics workflow is given below.
Protein preparation and digestion. The P. aeruginosa PAO1 strain was grown in ABTG media. Sub-lethal concentrations of G1 (25 μM) were added to independent P. aeruginosa PAO1 cultures respectively. Cultures were grown in LB medium at 37° C. with shaking until late log phase (OD 600 nm=1.0) before harvesting. After harvesting, cell pellets were washed with 1×PBS and resuspended in 2 ml of lysis buffer containing 0.5M TEAB and 0.1M SDS. The cells were ruptured by sonication, and the cell debris was removed by centrifugation at 4° C. at 16000×g for 15 min. 200 μg of proteins from different growth conditions were dissolved in equal volume of sample buffer (Invitrogen) supplemented with 0.5% 2-mercaptoethanol and denatured by boiling at 95° C. for 5 min. 1D gel electrophoresis was carried out using 10% SDS-PAGE for in-gel digestion.
Proteins were first reduced using 5 mM Tris-(2-carboxyethyl)phosphine (TCEP) for 1 h at 60° C., followed by blocking of cysteine residues by 10 mM methyl methanethiosulfate (MMTS) for 30 min at room temperature in the dark. Trypsin was added at a ratio of 1:50 (trypsin/sample). It was then incubated at 37° C. overnight. The tryptic peptides were extracted by 50% ACN/5% Acetic Acid from gel for 3 times and were desalted using Sep-Pak C18 cartridges (Waters, Milford, Mass.) and dried in a SpeedVac (Thermo Electron, Waltham, Mass.). All chemicals were purchased from Sigma-Aldrich unless stated otherwise.
iTRAQ labeling. The iTRAQ labeling of the tryptic peptides was performed using 4-plex iTRAQ reagent kit (Applied Biosystems, Foster City, Calif.), according to the manufacturers protocol. 200 μg of peptides from each condition were individually labeled with respective isobaric tags: control sample with 114, and the G1 treated sample with 115. After 2 h incubation, the samples were quenched by water, desalted using C18 solid phase extraction cartridge, and then vacuum-centrifuged to dryness. […] The HPLC chromatograms were recorded at 280 nm and fractions were collected online using automated fraction collector. 20 fractions were collected and concentrated using vacuum centrifuge and reconstituted in 3% ACN with 0.1% formic acid for LC-MS/MS analysis.
LC-MS/MS. The peptides were separated and analyzed on a home-packed nanobore C18 column (15 cm×75 μm; Reprosil-Pur C18-AQ, 3 μm, Dr Maisch, Germany) with a Picofritnanospray tip (New Objectives, Woburn, Mass., USA) on a Tempo™ nano-MDLC system coupled with a QSTAR® Elite Hybrid LC-MS/MS system (Applied Biosystems). Peptides from each fraction were analyzed in triplicate by LC-MS/MS over a gradient of 90 min. The flow rate of the LC system was set to a constant 300 nl/min. Data acquisition in QSTAR Elite was set to positive ion mode using Analyst® QS 2.0 software (Applied Biosystems). MS data was acquired in positive ion mode with a mass range of 300-1600 m/z. Peptides with +2 to +4 charge states were selected for MS/MS. For each MS spectrum, the three most abundant peptides above a five-count threshold were selected for MS/MS and dynamically excluded for 30 s with a mass tolerance of 0.03 Da. Smart information-dependent acquisition was activated with automatic collision energy and automatic MS/MS accumulation. The fragment intensity multiplier was set to 20 and maximum accumulation time was 2 s.
Data analysis. […]

rhlA-gfp(ASV) expression = experiment: Inhibition of the Rhl QS system, rhlA-gfp(ASV) reporter in PAO1 wild-type and lasR mutant; format: cell-based, P. aeruginosa
Description: Inhibition of the Rhl and PQS QS systems in wild-type PAO1 and PAO1 lasR mutant. Wild-type P. aeruginosa PAO1 strains harboring either the rhlA-gfp(ASV) reporter or the pqsA-gfp(ASV) reporter, and a P. aeruginosa PAO1 lasR mutant harboring either the rhlA-gfp(ASV) reporter or the pqsA-gfp(ASV) reporter were used for this experiment (Refer to FIG. 11 for strain information). Overnight cultures of these four strains were diluted 100-fold in ABTGC media within 96-well microtitre plates to a final volume of 200 μL per well. Each of the five QSIs was added in triplicate to a final concentration of 50 μM. 0.5% DMSO was used as a negative control. The microtitre plate was incubated at 37° C. in a Tecan Infinite 200 Pro plate reader where GFP and OD600 readings were measured at 15 min intervals.
Effect of QSIs on Rhl and Pqs Quorum-Sensing Systems. In order to address the problem of the specificity of present compounds, the five identified QSI compounds were tested to see if they had any effect on the rhl and pqs systems. The five QSIs were tested against a PAO1 wild-type and a PAO1 lasR mutant harboring either the rhlA-gfp (ASV) bioreporter or the pqsA-gfp (ASV) bioreporter. The rhlA system is dependent on the RhlR/I system. By doing so, we were able to determine if a QSI is able to inhibit the other two QS systems (i.e. rhl and pqs) in a lasR-dependent/independent manner (FIG. 8).

[2] = test system: elastase production by P. aeruginosa PAO1; experiment: Elastase assay of culture supernatants (EnzChek Elastase Assay Kit); format: cell-based; conditions: 50 and 100 μM, 2 h cultivation
Description: Elastase Assay. P. aeruginosa PAO1 wild-type and an elastase negative lasI rhlI mutant were cultivated in LB medium overnight at 37° C. with shaking. Overnight cultures were 1:100 diluted to 5 ml ABTGC medium and incubator at 37° C. with shaking. Compound G1 was supplemented into the PAO1 cultures at final concentrations of 0, 50, 100 μM respectively. After 2 h incubation, 0.8 mL culture supernatants were sampled by centrifugation (18000 g, 4 min) and filtration through 0.2 micron filters. Elastase activity of P. aeruginosa culture supernatants was measured by using The EnzChekElastase Assay Kit (Invitrogen), which uses BODIPY-FL-labeled DQ elastin conjugate as the substrate of elastase. The BODIPY-FL-labeled DQ elastins conjugate when cleaved by elastase enzyme, yields highly fluorescent fragments. Fluorescence was recorded every 6 min for 180 min by using a Tecan Infinite 200 Pro plate reader (excitation at 490 nm, emission at 520 nm).

SMILES: N=c1[nH]c(=O)c2nn[nH]c2[nH]1 [Compound G1, 5-imino-4,6-dihydro-3H-1,2,3-triazolo[5,4-d]pyrimidin-7-one]
- abundance of protease IV (PA4175), 115:114 [1]: 0.29
- change in abundance of pyoverdine chromophore synthetase (pvdL; PA2424) [1]: −0.73 fold
- change in abundance of pyoverdine synthetase D (pvdD; PA2399) [1]: −0.89 fold
- elastase (lasB; PA3724) in the proteomics result [1]: not identified as down-regulated
- number of proteins with abundance upregulated ([1]; 115:114 score at least 1.5): 19
- number of proteins with abundance down-regulated ([1]; 115:114 score below 0.66): 27
- number of proteins significantly affected ([1]; p-value (115:114) cut-off 0.05): 46
- inhibition of rhlA-gfp expression (rhlA-gfp(ASV) expression; PAO1 lasR mutant, 50 μM QSI): 46.5%
- induction of the rhl QS system (rhlA-gfp(ASV) expression; data not shown): delay the induction of the rhl QS system
- inhibition of rhlA-gfp expression (rhlA-gfp(ASV) expression; wild-type PAO1, 50 μM QSI): 23.1%
- elastase production (elastase activity of culture supernatants) [2]: almost abolish elastase production
